According to patent US20110251428A1 (priority 2006, published 2011):
“Also recorded” adds a separate entry of the source.

What was measured:
[1] = test system: yeast [PSI^+] prion; type: cell-based
[2] = test system: yeast [PSI^+] prion; settings: cited from earlier work
[3] = test system: [URE3] prion; type: cell-based

Compound	activity in the yeast-based method (earlier study) [2]	activity against yeast [PSI+] prion (halo of red colonies) [1]	also measured
Clc1cccc(Cl)c1N=C1NCCN1 [Clonidine]			anti-prion activity (data not shown) [1]: did not exhibit any anti-prion activity
CCN(CC)CCCC(C)Nc1c2ccc(Cl)cc2nc2ccc(OC)cc12 (stereo not drawn) [quinacrine]	active		
N=C(N)N/N=C/c1c(Cl)ccc(Cl)c1Cl [PSI210]		strongest activity; also recorded: more potent than Guanabenz itself	
CC(=O)O.N=C(N)N/N=C/c1c(Cl)cccc1Cl [Guanabenz acetate]		strongly active; also recorded: very active	activity against [URE3] prion [3]: also active; also recorded: also very active
CN(C)CCCN1c2ccccc2Sc2ccc(Cl)cc21 [chlorpromazine]	active		
